Patent US8148391B2 (Cephalon, Inc., priority 2006, dated 2012)
Read-outs that look alike come from different tables or passages of the source.

Legend:
[1] = target: T1, baculovirus-expressed ALK (Homo sapiens, UniProt Q9UM73); test: ALK Kinase Assay (ELISA-type, time-resolved fluorescence); assay type: biochemical
T1 construct: host or cells: baculovirus expression system
Procedure, shortened: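 Plates coated with phospholipase C-γ substrate (10 μg/mL in TBS); reaction started with 30 ng/ml ALK and run 15 min at 37° C. Phosphorylated substrate detected with Eu-N1-labeled PT66 antibody. IC50 from sigmoidal variable-slope fit of percent inhibition vs log concentration.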

[2] = target: T2, c-Met (cytoplasmic domain) (Homo sapiens, UniProt P08581); test: c-Met Kinase Assay (same methods as for ALK, with modifications); assay type: biochemical
T2 construct: 10 ng/mL c-Met (cytoplasmic domain, Invitrogen Corporation #PV3143); purchased Invitrogen Corporation PV3143
Procedure, shortened: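 Plates were coated with phospholipase C-γ substrate (10 μg/mL) in TBS, and the reaction was started with 10 ng/mL c-Met cytoplasmic domain and run 15 min at 37 °C. Phosphoproduct was detected with Eu-N1-labelled PT66 antibody. IC50 came from a variable-slope sigmoidal fit of percent inhibition vs log concentration.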

[3] = 1 μM ATP (Km level), read-out: ALK Activity (ALK Kinase Inhibition, IC50)
[4] = 1 μM ATP (Km level), read-out: cMet Activity (c-Met Kinase Inhibition, IC50)
[5] = ALK kinase inhibition, 1 μM ATP (Km level), read-out: ALK Activity
[6] = c-Met kinase inhibition, 1 μM ATP (Km level), read-out: cMet Activity
[7] = ALK kinase inhibition, 1 μM ATP, read-out: ALK Activity
[8] = c-Met kinase inhibition, 1 μM ATP, read-out: cMet Activity
[9] = 1 μM ATP (Km level), 30 ng/ml ALK, 37° C., 15 minutes, read-out: ALK Activity (ALK kinase inhibition, IC50 class)
[10] = 1 μM ATP (Km level), 10 ng/mL c-Met, read-out: cMet Activity (c-Met kinase inhibition, IC50 class)

T2 sequence (P08581 956-1390 limits assumed): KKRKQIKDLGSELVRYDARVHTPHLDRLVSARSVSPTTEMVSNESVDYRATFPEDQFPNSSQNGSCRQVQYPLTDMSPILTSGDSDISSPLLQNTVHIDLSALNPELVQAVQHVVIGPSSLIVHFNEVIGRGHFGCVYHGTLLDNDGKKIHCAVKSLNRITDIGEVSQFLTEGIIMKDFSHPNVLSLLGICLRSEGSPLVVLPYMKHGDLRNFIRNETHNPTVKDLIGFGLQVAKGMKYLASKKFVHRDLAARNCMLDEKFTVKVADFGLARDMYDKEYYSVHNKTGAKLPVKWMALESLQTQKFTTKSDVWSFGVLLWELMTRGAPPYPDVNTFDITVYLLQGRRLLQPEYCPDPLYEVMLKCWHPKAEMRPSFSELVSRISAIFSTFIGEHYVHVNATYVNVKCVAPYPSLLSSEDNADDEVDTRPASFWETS
T1 sequence (Q9UM73 19-1620): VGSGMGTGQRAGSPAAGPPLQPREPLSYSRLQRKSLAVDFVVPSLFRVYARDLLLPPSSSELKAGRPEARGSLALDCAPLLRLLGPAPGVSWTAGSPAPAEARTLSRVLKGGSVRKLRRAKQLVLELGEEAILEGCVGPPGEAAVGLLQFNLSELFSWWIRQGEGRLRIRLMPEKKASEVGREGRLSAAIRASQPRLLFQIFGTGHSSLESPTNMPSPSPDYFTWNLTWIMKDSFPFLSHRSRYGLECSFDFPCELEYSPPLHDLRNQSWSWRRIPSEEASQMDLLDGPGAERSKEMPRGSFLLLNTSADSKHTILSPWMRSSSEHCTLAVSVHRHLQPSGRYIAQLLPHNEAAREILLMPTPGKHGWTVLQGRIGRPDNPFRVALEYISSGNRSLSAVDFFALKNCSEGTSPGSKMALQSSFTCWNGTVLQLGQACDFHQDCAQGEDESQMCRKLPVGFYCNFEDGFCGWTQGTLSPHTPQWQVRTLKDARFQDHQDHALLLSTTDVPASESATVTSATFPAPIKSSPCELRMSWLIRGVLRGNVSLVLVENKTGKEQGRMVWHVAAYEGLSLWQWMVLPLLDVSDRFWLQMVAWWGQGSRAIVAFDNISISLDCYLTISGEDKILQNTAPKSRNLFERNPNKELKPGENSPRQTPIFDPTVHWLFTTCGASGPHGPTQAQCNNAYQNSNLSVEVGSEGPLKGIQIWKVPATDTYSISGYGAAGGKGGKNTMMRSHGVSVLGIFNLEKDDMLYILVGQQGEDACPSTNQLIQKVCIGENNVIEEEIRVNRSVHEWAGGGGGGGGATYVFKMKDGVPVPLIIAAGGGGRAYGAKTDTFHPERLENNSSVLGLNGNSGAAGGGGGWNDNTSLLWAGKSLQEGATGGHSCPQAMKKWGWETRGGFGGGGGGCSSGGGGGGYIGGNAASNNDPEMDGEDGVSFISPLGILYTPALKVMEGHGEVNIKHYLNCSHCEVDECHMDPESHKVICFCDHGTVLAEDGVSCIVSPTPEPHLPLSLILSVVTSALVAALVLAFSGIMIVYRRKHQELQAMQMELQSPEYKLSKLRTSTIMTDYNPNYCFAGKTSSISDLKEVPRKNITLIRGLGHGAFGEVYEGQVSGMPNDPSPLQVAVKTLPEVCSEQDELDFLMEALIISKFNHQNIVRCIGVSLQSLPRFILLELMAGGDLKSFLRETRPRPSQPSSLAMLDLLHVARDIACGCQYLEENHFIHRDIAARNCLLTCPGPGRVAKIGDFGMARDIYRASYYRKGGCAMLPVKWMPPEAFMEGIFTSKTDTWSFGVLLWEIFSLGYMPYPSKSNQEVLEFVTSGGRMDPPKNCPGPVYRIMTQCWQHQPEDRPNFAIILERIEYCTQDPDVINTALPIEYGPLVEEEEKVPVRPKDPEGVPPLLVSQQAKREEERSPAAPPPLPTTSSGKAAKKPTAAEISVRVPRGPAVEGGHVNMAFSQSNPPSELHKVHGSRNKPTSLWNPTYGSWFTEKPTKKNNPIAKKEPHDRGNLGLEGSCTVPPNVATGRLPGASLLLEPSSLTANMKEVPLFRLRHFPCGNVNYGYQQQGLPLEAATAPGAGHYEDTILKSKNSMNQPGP

Compound: CN1CCN(C[C@@H](O)C(F)(F)F)Cc2cc(OCC(F)(F)F)c(Nc3ncc(Cl)c(N[C@@H]4CCCC[C@H]4NS(C)(=O)=O)n3)cc21 [Example 498, N-((1R,2R)-2-{5-Chloro-2-[1-methyl-7-(2,2,2-trifluoro-ethoxy)-4-((R)-3,3,3-trifluoro-2-hydroxy-propyl)-2,3,4,5-tetrahydro-1H-benzo[e][1,4]diazepin-8-ylamino]-pyrimidin-4-ylamino}-cyclohexyl)-methanesulfonamide]
- IC50 [1, 3]: 100 to 1000 nM
- IC50 [2, 4]: > 10000 nM

Compound: CNC(=O)c1ccccc1Nc1nc(Nc2ccc3c(c2)CCC(F)(F)CC3)ncc1Cl [Example 180, 2-[5-Chloro-2-(7,7-difluoro-6,7,8,9-tetrahydro-5H-benzocyclohepten-2-ylamino)-pyrimidin-4-ylamino]-N-methyl-benzamide]
- IC50 [1, 5]: < 100 nM
- IC50 [2, 6]: 100 to 1000 nM

Compound: CCN1CCN(CC)c2cc(Nc3ncc(Cl)c(Nc4ccc(OC)cc4-n4cccn4)n3)ccc2C1 [Example 732, 5-Chloro-N(2)-(1,4-diethyl-2,3,4,5-tetrahydro-1H-benzo[e][1,4]diazepin-8-yl)-N(4)-(4-methoxy-2-pyrazol-1-yl-phenyl)-pyrimidine-2,4-diamine]
- IC50 [1, 3]: < 100 nM
- IC50 [2, 4]: 1000 to 10000 nM

Compound: CCN1C(=O)CCCc2c1ccc(Nc1ncc(Cl)c(Nc3ccc(OC)cc3C(=O)OC(C)C)n1)c2OC [Example 608, 2-[5-Chloro-2-(1-ethyl-6-methoxy-2-oxo-2,3,4,5-tetrahydro-1H-benzo[b]azepin-7-ylamino)-pyrimidin-4-ylamino]-5-methoxy-benzoic acid isopropyl ester]
- IC50 [1, 3]: 1000 to 10000 nM
- IC50 [2, 4]: > 10000 nM

Compound: COCCN1CCN(C)c2cc(Nc3ncc(Cl)c(N[C@@H]4CCCC[C@H]4NS(C)(=O)=O)n3)c(OC)cc2C1 [Example 490, N-((1R,2R)-2-{5-Chloro-2-[7-methoxy-4-(2-methoxy-ethyl)-1-methyl-2,3,4,5-tetrahydro-1H-benzo[e][1,4]diazepin-8-ylamino]-pyrimidin-4-ylamino}-cyclohexyl)-methanesulfonamide]
- IC50 [1, 5]: < 100 nM
- IC50 [2, 6]: > 10000 nM

Compound: CNC(=O)c1cccc(OC(F)(F)F)c1Nc1nc(Nc2ccc3c(c2)CCOC(=O)N3C)ncc1Cl [Example 1773, 2-[5-Chloro-2-(5-methyl-6-oxo-5,6,8,9-tetrahydro-7-oxa-5-aza-benzocyclohepten-2-ylamino)-pyrimidin-4-ylamino]-N-methyl-3-trifluoromethoxy-benzamide]
- IC50 [1, 7]: > 10000 nM
- IC50 [2, 8]: 100 to 1000 nM

Compound: CNc1nc(N2CCOCC2)ccc1Nc1nc(Nc2cc3c(cc2OC)CCN(CC(=O)N(C)C)CC3)ncc1Cl [Example 1209, 2-{7-[5-Chloro-4-(2-methylamino-6-morpholin-4-yl-pyridin-3-ylamino)-pyrimidin-2-ylamino]-8-methoxy-1,2,4,5-tetrahydro-benzo[d]azepin-3-yl}-N,N-dimethyl-acetamide]
- IC50 [1, 9]: < 100 nM
- IC50 [2, 10]: > 10000 nM

Compound: CN1CCN(S(C)(=O)=O)Cc2ccc(Nc3ncc(Cl)c(Nc4ccccc4NS(C)(=O)=O)n3)cc21 [Example 474, N-{2-[5-Chloro-2-(4-methanesulfonyl-1-methyl-2,3,4,5-tetrahydro-1H-benzo[e][1,4]diazepin-8-ylamino)-pyrimidin-4-ylamino]-phenyl}-methanesulfonamide]
- IC50 [1, 5]: < 100 nM
- IC50 [2, 6]: 100 to 1000 nM

Compound: CN1C(=O)CCCc2ccc(Nc3ncc(Cl)c(N[C@@H]4CCCC[C@H]4NS(C)(=O)=O)n3)cc21 [Example 109, N-{(1R,2R)-2-[5-Chloro-2-(1-methyl-2-oxo-2,3,4,5-tetrahydro-1H-benzo[b]azepin-8-ylamino)-pyrimidin-4-ylamino]-cyclohexyl}-methanesulfonamide]
- IC50 [1, 5]: < 100 nM
- IC50 [2, 6]: 1000 to 10000 nM

Compound: CCN1C(=O)CCCc2c1ccc(Nc1ncc(Cl)c(Nc3ccc(N4CCN(C)CC4)cc3OC)n1)c2OC [Example 1311, 7-{5-Chloro-4-[2-methoxy-4-(4-methyl-piperazin-1-yl)-phenylamino]-pyrimidin-2-ylamino}-1-ethyl-6-methoxy-1,3,4,5-tetrahydro-benzo[b]azepin-2-one]
- IC50 [1, 9]: < 100 nM
- IC50 [2, 10]: > 10000 nM

Compound: CCN1CCN(CC)c2cc(Nc3ncc(Cl)c(Nc4ccccc4C(=O)OCCOC)n3)ccc2C1 [Example 713, 2-[5-Chloro-2-(1,4-diethyl-2,3,4,5-tetrahydro-1H-benzo[e][1,4]diazepin-8-ylamino)-pyrimidin-4-ylamino]-benzoic acid 2-methoxy-ethyl ester]
- IC50 [1, 3]: < 100 nM
- IC50 [2, 4]: 1000 to 10000 nM

Compound: CNC(=O)c1ccccc1Nc1nc(Nc2c(OC)ccc3c2C(=O)N(C)CCC3)ncc1Cl [Example 114, 2-[5-Chloro-2-(8-methoxy-2-methyl-1-oxo-2,3,4,5-tetrahydro-1H-benzo[c]azepin-9-ylamino)-pyrimidin-4-ylamino]-N-methyl-benzamide]
- IC50 [1, 5]: > 10000 nM
- IC50 [2, 6]: > 10000 nM

Compound: CN(C)S(=O)(=O)c1ccccc1Nc1nc(Nc2ccc3c(c2)CCN(CC2COCCO2)CC3)ncc1Cl (stereo not shown) [Example 641, 2-[5-Chloro-2-(3-[1,4]dioxan-2-ylmethyl-2,3,4,5-tetrahydro-1H-benzo[d]azepin-7-ylamino)-pyrimidin-4-ylamino]-N,N-dimethyl-benzenesulfonamide]
- IC50 [1, 3]: < 100 nM
- IC50 [2, 4]: < 100 nM

Compound: COc1cc2c(cc1Nc1ncc(Cl)c(Nc3ccccc3S(=O)(=O)N3CC[C@H](C)C3)n1)CCN(CC(=O)N(C)C)CC2 [Example 856, 2-(7-{5-Chloro-4-[2-((S)-3-methyl-pyrrolidine-1-sulfonyl)-phenylamino]-pyrimidin-2-ylamino}-8-methoxy-1,2,4,5-tetrahydro-benzo[d]azepin-3-yl)-N,N-dimethyl-acetamide]
- IC50 [1, 3]: < 100 nM
- IC50 [2, 4]: 100 to 1000 nM

Compound: CNC(=O)c1cccc(F)c1Nc1nc(Nc2ccc3c(c2)NC(=O)CN(CCC(F)(F)F)C3)ncc1Cl [Example 1861, 2-{5-Chloro-2-[2-oxo-4-(3,3,3-trifluoro-propyl)-2,3,4,5-tetrahydro-1H-benzo[e][1,4]diazepin-8-ylamino]-pyrimidin-4-ylamino}-3-fluoro-N-methyl-benzamide]
- IC50 [1, 7]: 100 to 1000 nM
- IC50 [2, 8]: < 100 nM

Compound: 2-[5-Chloro-2-(1-methyl-1,2,3,5-tetrahydro-benzo[e][1,4]oxazepin-7-ylamino)-pyrimidin-4-ylamino]-N-(2-hydroxy-ethyl)-benzamide and 2-{2-[5-Chloro-2-(1-methyl-1,2,3,5-tetrahydro-benzo[e][1,4]oxazepin-7-ylamino)-pyrimidin-4-ylamino]-phenyl}-oxazolidin-2-ol [Example 16]
- IC50 [1, 5]: < 100 nM
- IC50 [2, 6]: < 100 nM

Compound: COc1cc(N2CCOCC2)ccc1Nc1nc(Nc2cc(F)cc3c2OCCNC3=O)ncc1Cl [Example 1684, 9-[5-Chloro-4-(2-methoxy-4-morpholin-4-yl-phenylamino)-pyrimidin-2-ylamino]-7-fluoro-3,4-dihydro-2H-benzo[f][1,4]oxazepin-5-one]
- IC50 [1, 7]: < 100 nM
- IC50 [2, 8]: > 10000 nM

Compound: CNC(=O)c1ccccc1Nc1nc(Nc2ccc3c(c2)CCC(N2CCOCC2)CC3)ncc1C(F)(F)F (stereo not shown) [Example 923, N-Methyl-2-[2-(7-morpholin-4-yl-6,7,8,9-tetrahydro-5H-benzocyclohepten-2-ylamino)-5-trifluoromethyl-pyrimidin-4-ylamino]-benzamide]
- IC50 [1, 3]: < 100 nM
- IC50 [2, 4]: < 100 nM

Compound: COc1c(Nc2ncc(Cl)c(Nc3ccccc3S(=O)(=O)N3CC[C@@H](O)C3)n2)ccc2c1CCCC(NCCO)C2 (stereo partly drawn) [Example 962, (R)-1-(2-{5-Chloro-2-[6-(2-hydroxy-ethylamino)-1-methoxy-6,7,8,9-tetrahydro-5H-benzocyclohepten-2-ylamino]-pyrimidin-4-ylamino}-benzenesulfonyl)-pyrrolidin-3-ol]
- IC50 [1, 3]: < 100 nM
- IC50 [2, 4]: > 10000 nM

Compound: CCNC(=O)c1cccc(F)c1Nc1nc(Nc2ccc3c(c2)NC(=O)CCC3(C)C)ncc1Cl [Example 1575, 2-[5-Chloro-2-(5,5-dimethyl-2-oxo-2,3,4,5-tetrahydro-1H-benzo[b]azepin-8-ylamino)-pyrimidin-4-ylamino]-N-ethyl-3-fluoro-benzamide]
- IC50 [1, 7]: < 100 nM
- IC50 [2, 8]: < 100 nM

Compound: CCN1CCCOc2ccc(Nc3ncc(Cl)c(Nc4c(F)cc(-c5cnn(C)c5)cc4C(=O)NC)n3)cc21 [Example 1425, 2-[5-Chloro-2-(9-ethyl-6,7,8,9-tetrahydro-5-oxa-9-aza-benzocyclohepten-2-ylamino)-pyrimidin-4-ylamino]-3-fluoro-N-methyl-5-(1-methyl-1H-pyrazol-4-yl)-benzamide]
- IC50 [1, 9]: < 100 nM
- IC50 [2, 10]: < 100 nM

Compound: COCCN1CCc2ccc(Nc3ncc(Cl)c(Nc4ccccc4C(=O)NCC(C)C)n3)cc2CC1 [Example 1396, {5-Chloro-2-[3-(2-methoxy-ethyl)-2,3,4,5-tetrahydro-1H-benzo[d]azepin-7-ylamino]-pyrimidin-4-ylamino}-N-isobutyl-benzamide]
- IC50 [1, 9]: < 100 nM
- IC50 [2, 10]: 100 to 1000 nM

Compound: COc1cccnc1-c1ccccc1Nc1nc(Nc2ccc3c(c2)CCC(N2CCOCC2)CC3)ncc1Cl (stereo not shown) [Example 1018, 5-Chloro-N*4*-[2-(3-methoxy-pyridin-2-yl)-phenyl]-N*2*-(7-morpholin-4-yl-6,7,8,9-tetrahydro-5H-benzocyclohepten-2-yl)-pyrimidine-2,4-diamine]
- IC50 [1, 9]: < 100 nM
- IC50 [2, 10]: 1000 to 10000 nM
